Patent US12306178B2 (priority 2022, dated 2025)

What was measured:
[1] = system: AFB1-ScFV-AP bifunctional fusion protein; assay type: binding
[2] = system: DON-ScFV-AP bifunctional fusion protein; assay type: binding

Molecule: CC1=C[C@H]2O[C@@H]3[C@H](O[C@@H]4O[C@H](CO)[C@@H](O)[C@H](O)[C@H]4O)C[C@](C)([C@@]2(CO)[C@H](O)C1=O)[C@]31CO1 [DON-3G, deoxynivalenol-3-glucoside]
- IC50 [1]: >50 ppm

Molecule: C[C@@H]1Cc2c(Cl)cc(C(=O)N[C@@H](Cc3ccccc3)C(=O)O)c(O)c2C(=O)O1 [OTA, ochratoxin A]
- IC50 [1]: >1.9 ppm
- IC50 [2]: >1.9 ppm

Molecule: CCCC[C@@H](C)[C@@H](OC(=O)C[C@@H](CC(=O)O)C(=O)O)[C@H](C[C@@H](C)C[C@H](O)CCCCCC[C@H](O)[C@H](C)N)OC(=O)C[C@@H](CC(=O)O)C(=O)O [FB3, fumonisin B3]
- IC50 [1]: >28.6 ppm

Molecule: CC1=C[C@H]2O[C@@H]3[C@H](O)[C@@H](O)[C@](C)([C@@]2(CO)[C@H](O)C1=O)[C@]31CO1 [NIV, nivalenol]
- IC50 [1]: >100.4 ppm
- IC50 [2]: 610 ppb

Molecule: CCCC[C@@H](C)[C@@H](OC(=O)C[C@@H](CC(=O)O)C(=O)O)[C@H](C[C@@H](C)C[C@H](O)CCCC[C@@H](O)C[C@H](O)[C@H](C)N)OC(=O)C[C@@H](CC(=O)O)C(=O)O [FB1, fumonisin B1]
- IC50 [1]: >28.6 ppm

Molecule: C[C@H]1CCCC(=O)CCC/C=C/c2cc(O)cc(O)c2C(=O)O1 [ZEN, zearalenone]
- IC50 [1]: >20 ppm
- IC50 [2]: >20 ppm

Molecule: T-2 toxin
- IC50 [1]: >100 ppm
- IC50 [2]: >100 ppm

Molecule: aflatoxin G1 [AFG1]
- IC50 [1]: 2.1 ppb

Molecule: aflatoxin G2 [AFG2]
- IC50 [1]: 8.1 ppb

Molecule: CC(=O)O[C@@H]1C[C@]2(C)[C@@]3(CO)[C@H](O)C(=O)C(C)=C[C@H]3O[C@H]1[C@@]21CO1 [3-ADON, 3-acetyldeoxynivalenol]
- IC50 [1]: >100.1 ppm
- IC50 [2]: 2.3 ppb
- cross-reaction (in words) [2]: obvious cross-reaction

Molecule: aflatoxin B2 [AFB2]
- IC50 [1]: 1.9 ppb

Molecule: CC(=O)OC[C@]12[C@H](O)C(=O)C(C)=C[C@H]1O[C@@H]1[C@H](O)C[C@@]2(C)[C@]12CO2 [15-ADON, 15-acetyldeoxynivalenol]
- IC50 [1]: >100.4 ppm
- IC50 [2]: 64 ppb

Molecule: CC1=C[C@H]2O[C@@H]3[C@H](O)C[C@](C)([C@@]2(CO)[C@H](O)C1=O)[C@]31CO1 [DON, Deoxynivalenol]
- IC50 [1]: >10 ppm
- IC50 [2]: 2.4 ppb

Molecule: CCCC[C@@H](C)[C@@H](OC(=O)C[C@@H](CC(=O)O)C(=O)O)[C@H](C[C@@H](C)CCCCCC[C@@H](O)C[C@H](O)[C@H](C)N)OC(=O)C[C@@H](CC(=O)O)C(=O)O [FB2, fumonisin B2]
- IC50 [1]: >28.6 ppm

Molecule: aflatoxin B1 [AFB1]
- IC50 [1]: 0.5 ppb
- IC50 [2]: >2 ppm
